Data from patent US20210045385A1, “PYRIDAZINONE-SUBSTITUTED KETOXIMES AS HERBICIDES” (FMC Corporation, priority 2018, published 2021).

Tests used:
Format in all cases: in vivo
[1] = test system: foxtail, giant (giant foxtail, Setaria faberi); experiment: Test C preemergence, visual plant response rating; details: Test C, 0 is no effect, 100 is complete control
Outline: (§1)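 Compounds in a non-phytotoxic solvent with surfactant were applied as a directed soil spray preemergence or to 2–10 cm, one- to two-leaf plants postemergence, in loam–sand soil. After about 10 d in a greenhouse, injury was visually rated against untreated controls on a 0–100 scale (100 = complete control).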

[2] = test system: Italian ryegrass (Lolium mutiflorum); experiment: Test C preemergence, visual plant response rating; details: Test C, 0 is no effect, 100 is complete control
Outline: as §1

[3] = test system: pigweed (Amaranthus retroflexus); experiment: Test C preemergence, visual plant response rating; details: Test C, 0 is no effect, 100 is complete control
Outline: as §1

[4] = test system: kochia (Bassia scoparia); experiment: Test C preemergence, visual plant response rating; details: Test C, 0 is no effect, 100 is complete control
Outline: as §1

[5] = test system: ragweed (common ragweed, Ambrosia artemisiifolia); experiment: Test C preemergence, visual plant response rating; details: Test C, 0 is no effect, 100 is complete control
Outline: as §1

[6] = test system: barnyardgrass (Echinochloa crus-galli); experiment: Test C preemergence, visual plant response rating; details: Test C, 0 is no effect, 100 is complete control
Outline: as §1

[7] = test system: foxtail, giant (giant foxtail, Setaria faberi); experiment: Test C postemergence, visual plant response rating
Outline: as §1

[8] = test system: corn (Zea mays); experiment: Test C postemergence, visual plant response rating
Outline: as §1

[9] = test system: galium (catchweed bedstraw, Galium aparine); experiment: Test C postemergence, visual plant response rating
Outline: as §1

[10] = test system: Italian ryegrass (Lolium mutiflorum); experiment: Test C postemergence, visual plant response rating
Outline: as §1

[11] = test system: blackgrass (Alopecurus myosuroides); experiment: Test C postemergence, visual plant response rating
Outline: as §1

[12] = test system: pigweed (Amaranthus retroflexus); experiment: Test C postemergence, visual plant response rating
Outline: as §1

[13] = test system: kochia (Bassia scoparia); experiment: Test C postemergence, visual plant response rating
Outline: as §1

[14] = test system: ragweed (common ragweed, Ambrosia artemisiifolia); experiment: Test C postemergence, visual plant response rating
Outline: as §1

[15] = test system: barnyardgrass (Echinochloa crus-galli); experiment: Test C postemergence, visual plant response rating
Outline: as §1

[16] = test system: wheat (Triticum aestivum); experiment: Test C postemergence, visual plant response rating
Outline: as §1

[17] = test system: duck salad (Heteranthera limosa); experiment: Test D flooded paddy test, visual plant response rating; details: 250 g ai/ha, scale 0 to 100 (0 no effect, 100 complete control), 13 to 15 d
Outline: (§2)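 Plants were grown to the 2-leaf stage, pots flooded to 3 cm above soil, and compound applied directly into the paddy water, with the depth held throughout. After 13 to 15 d in a greenhouse, response was rated visually against untreated controls on a 0–100 scale (0 no effect, 100 complete control).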

[18] = test system: rice (Oryza sativa); experiment: as above; details: 250 g ai/ha, scale 0 to 100 (0 no effect, 100 complete control), 13 to 15 d
Outline: as §2

[19] = test system: sedge umbrella (small-flower umbrella sedge, Cyperus difformis); experiment: as above; details: 250 g ai/ha, scale 0 to 100 (0 no effect, 100 complete control), 13 to 15 d
Outline: as §2

[20] = test system: barnyardgrass (Echinochloa crus-galli); experiment: as above; details: 250 g ai/ha, scale 0 to 100 (0 no effect, 100 complete control), 13 to 15 d
Outline: as §2

[21] = Test C, postemergence, 125 g ai/ha

Structure (SMILES) | Foxtail, Giant plant response rating (0 to 100 scale) ([1]; 31 g ai/ha) | Foxtail, Giant plant response rating (0 to 100 scale) ([1]; 125 g ai/ha) | Ryegrass, Italian plant response rating (0 to 100 scale) ([2]; 31 g ai/ha) | Ryegrass, Italian plant response rating (0 to 100 scale) ([2]; 125 g ai/ha) | Pigweed plant response rating (0 to 100 scale) ([3]; 31 g ai/ha) | Pigweed plant response rating (0 to 100 scale) ([3]; 125 g ai/ha) | Kochia plant response rating (0 to 100 scale) ([4]; 31 g ai/ha) | Kochia plant response rating (0 to 100 scale) ([4]; 125 g ai/ha) | Ragweed plant response rating (0 to 100 scale) ([5]; 31 g ai/ha) | Ragweed plant response rating (0 to 100 scale) ([5]; 125 g ai/ha) | Barnyardgrass plant response rating (0 to 100 scale) ([6]; 31 g ai/ha) | Barnyardgrass plant response rating (0 to 100 scale) ([6]; 125 g ai/ha) | Foxtail, Giant plant response rating (0 to 100 scale) ([7]; Postemergence, 31 g ai/ha) | Foxtail, Giant plant response rating (0 to 100 scale) [7, 21] | Corn plant response rating (0 to 100 scale) ([8]; Postemergence, 31 g ai/ha) | Corn plant response rating (0 to 100 scale) [8, 21] | Galium plant response rating (0 to 100 scale) ([9]; Postemergence, 31 g ai/ha) | Galium plant response rating (0 to 100 scale) [9, 21] | Ryegrass, Italian plant response rating (0 to 100 scale) ([10]; Postemergence, 31 g ai/ha) | Ryegrass, Italian plant response rating (0 to 100 scale) [10, 21] | further results
CO/N=C(/c1cc(Cl)c(F)c(Cl)c1)c1c(O)c(C)nn(C)c1=O [Compound 289] | 0 | 10 | 0 | 30 | 0 | 40 | 0 | 0 | 0 | 30 | 0 | 0 | 0 | 0 | 0 | 0 | 70 | 100 | 0 | 60 | Blackgrass plant response rating (0 to 100 scale) ([11]; Postemergence, 31 g ai/ha): 0; Blackgrass plant response rating (0 to 100 scale) [11, 21]: 0; Pigweed plant response rating (0 to 100 scale) ([12]; Postemergence, 31 g ai/ha): 0; Pigweed plant response rating (0 to 100 scale) [12, 21]: 0; Kochia plant response rating (0 to 100 scale) ([13]; Postemergence, 31 g ai/ha): 20; Kochia plant response rating (0 to 100 scale) [13, 21]: 40; Ragweed plant response rating (0 to 100 scale) ([14]; Postemergence, 31 g ai/ha): 40; Ragweed plant response rating (0 to 100 scale) [14, 21]: 90; Barnyardgrass plant response rating (0 to 100 scale) ([15]; Postemergence, 31 g ai/ha): 0; Barnyardgrass plant response rating (0 to 100 scale) [15, 21]: 10; Wheat plant response rating (0 to 100 scale) ([16]; Postemergence, 31 g ai/ha): 0; Wheat plant response rating (0 to 100 scale) [16, 21]: 0; Plant response rating, Ducksalad (Flood) [17]: 0; Plant response rating, Rice (Flood) [18]: 0; Plant response rating, Sedge, Umbrella (Flood) [19]: 0; Plant response rating, Barnyardgrass (Flood) [20]: 0
CO/N=C(\c1cc(Cl)c(F)c(Cl)c1)c1c(O)c(C)nn(C)c1=O [Compound 290] | 0 | 20 | 0 | 40 | 10 | 30 | 0 | 0 | 20 | 90 | 0 | 0 | 0 | 0 | 0 | 0 | 70 | 100 | 0 | 60 | Blackgrass plant response rating (0 to 100 scale) ([11]; Postemergence, 31 g ai/ha): 0; Blackgrass plant response rating (0 to 100 scale) [11, 21]: 0; Pigweed plant response rating (0 to 100 scale) ([12]; Postemergence, 31 g ai/ha): 0; Pigweed plant response rating (0 to 100 scale) [12, 21]: 0; Kochia plant response rating (0 to 100 scale) ([13]; Postemergence, 31 g ai/ha): 0; Kochia plant response rating (0 to 100 scale) [13, 21]: 20; Ragweed plant response rating (0 to 100 scale) ([14]; Postemergence, 31 g ai/ha): 20; Ragweed plant response rating (0 to 100 scale) [14, 21]: 50; Barnyardgrass plant response rating (0 to 100 scale) ([15]; Postemergence, 31 g ai/ha): 0; Barnyardgrass plant response rating (0 to 100 scale) [15, 21]: 20; Wheat plant response rating (0 to 100 scale) ([16]; Postemergence, 31 g ai/ha): 0; Wheat plant response rating (0 to 100 scale) [16, 21]: 0; Plant response rating, Ducksalad (Flood) [17]: 0; Plant response rating, Rice (Flood) [18]: 0; Plant response rating, Sedge, Umbrella (Flood) [19]: 0; Plant response rating, Barnyardgrass (Flood) [20]: 0
C#CCO/N=C(/c1cc(Cl)cc(Br)c1)c1c(O)c(C)nn(C)c1=O [Compound 291] | 50 | 100 | 10 | 100 | 10 | 80 | 0 | 90 | 60 | 100 | 0 | 100 | 40 | 80 | 20 | 30 | 100 | 100 | 90 | 100 | Blackgrass plant response rating (0 to 100 scale) ([11]; Postemergence, 31 g ai/ha): 0; Blackgrass plant response rating (0 to 100 scale) [11, 21]: 70; Pigweed plant response rating (0 to 100 scale) ([12]; Postemergence, 31 g ai/ha): 30; Pigweed plant response rating (0 to 100 scale) [12, 21]: 60; Kochia plant response rating (0 to 100 scale) ([13]; Postemergence, 31 g ai/ha): 50; Kochia plant response rating (0 to 100 scale) [13, 21]: 100; Ragweed plant response rating (0 to 100 scale) ([14]; Postemergence, 31 g ai/ha): 100; Ragweed plant response rating (0 to 100 scale) [14, 21]: 100; Barnyardgrass plant response rating (0 to 100 scale) ([15]; Postemergence, 31 g ai/ha): 20; Barnyardgrass plant response rating (0 to 100 scale) [15, 21]: 70; Wheat plant response rating (0 to 100 scale) ([16]; Postemergence, 31 g ai/ha): 30; Wheat plant response rating (0 to 100 scale) [16, 21]: 90; Plant response rating, Ducksalad (Flood) [17]: 25; Plant response rating, Rice (Flood) [18]: 0; Plant response rating, Sedge, Umbrella (Flood) [19]: 45; Plant response rating, Barnyardgrass (Flood) [20]: 0
C#CCO/N=C(\c1cc(Cl)cc(Br)c1)c1c(O)c(C)nn(C)c1=O [Compound 292] | 70 | 100 | 80 | 100 | 50 | 100 | 30 | 100 | 90 | 100 | 60 | 100 | 60 | 100 | 0 | 40 | 100 | 100 | 100 | 100 | Blackgrass plant response rating (0 to 100 scale) ([11]; Postemergence, 31 g ai/ha): 0; Blackgrass plant response rating (0 to 100 scale) [11, 21]: 80; Pigweed plant response rating (0 to 100 scale) ([12]; Postemergence, 31 g ai/ha): 60; Pigweed plant response rating (0 to 100 scale) [12, 21]: 90; Kochia plant response rating (0 to 100 scale) ([13]; Postemergence, 31 g ai/ha): 60; Kochia plant response rating (0 to 100 scale) [13, 21]: 100; Ragweed plant response rating (0 to 100 scale) ([14]; Postemergence, 31 g ai/ha): 100; Ragweed plant response rating (0 to 100 scale) [14, 21]: 100; Barnyardgrass plant response rating (0 to 100 scale) ([15]; Postemergence, 31 g ai/ha): 30; Barnyardgrass plant response rating (0 to 100 scale) [15, 21]: 70; Wheat plant response rating (0 to 100 scale) ([16]; Postemergence, 31 g ai/ha): 60; Wheat plant response rating (0 to 100 scale) [16, 21]: 100; Plant response rating, Ducksalad (Flood) [17]: 45; Plant response rating, Rice (Flood) [18]: 0; Plant response rating, Sedge, Umbrella (Flood) [19]: 55; Plant response rating, Barnyardgrass (Flood) [20]: 0
